Results from patent US20150105252A1, “SUBSTITUTED PYRAZOLES AS HERBICIDES” (E I DU PONT DE NEMOURS AND COMPANY, priority 2013, published 2015).

Legend:
nutsedge, yellow = assay: Test C preemergence; format: in vivo, Cyperus esculentus; conditions: for Nutsedge, Yellow plant response rating: preemergence
Outline: (§1)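 Seeds sown in loam–sand blend and treated preemergence with test chemicals in non-phytotoxic solvent with surfactant; postemergence plants in peat-based medium, treated at 2–18 cm (1- to 4-leaf stage). Greenhouse 13 to 15 days, then visual rating versus controls, 0 (no effect) to 100 (complete control).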

oilseed rape [1] = assay: Test C postemergence; format: in vivo, Brassica napus
Outline: as §1

soybean [2] = assay: Test C postemergence; format: in vivo, Glycine max
Outline: as §1

corn = assay: Test C postemergence; format: in vivo, Zea mays
Outline: as §1

oilseed rape [3] = assay: Test C preemergence; format: in vivo, Brassica napus; conditions: for Oilseed Rape plant response rating: preemergence
Outline: as §1

barnyardgrass [4] = assay: Test A preemergence; format: in vivo, Echinochloa crus-galli; conditions: preemergence
Outline: (§2)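 Seeds were sown in a loam soil–sand blend and given a directed soil spray preemergence; postemergence plants at 2–10 cm, one- to two-leaf stage, were sprayed with compound in non-phytotoxic solvent with surfactant. After about 10 days in a greenhouse, injury was visually rated against untreated controls (0 = no effect, 100 = complete control).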

velvetleaf [5] = assay: Test C preemergence; format: in vivo, Abutilon theophrasti; conditions: for Velvetleaf plant response rating: preemergence
Outline: as §1

barnyardgrass [6] = assay: Test A postemergence; format: in vivo, Echinochloa crus-galli
Outline: as §2

soybean [7] = assay: Test C preemergence; format: in vivo, Glycine max; conditions: for Soybean plant response rating: preemergence
Outline: as §1

barnyardgrass [8] = assay: Test C postemergence; format: in vivo, Echinochloa crus-galli
Outline: as §1

velvetleaf [9] = assay: Test C postemergence; format: in vivo, Abutilon theophrasti
Outline: as §1

wheat = assay: Test C postemergence; format: in vivo, Triticum aestivum
Outline: as §1

pigweed = assay: Test A postemergence; format: in vivo, Amaranthus retroflexus
Outline: as §2

[10] = 31 g ai/ha, visual rating, scale 0 to 100 (0 no effect, 100 complete control), 13 to 15 days
[11] = 62 g ai/ha, scale 0 to 100 (0 no effect, 100 complete control), 13 to 15 days
[12] = 125 g ai/ha, scale 0 to 100, 0 is no effect, 100 is complete control
[13] = Postemergence, 31 g ai/ha, visually evaluated after 13 to 15 days
[14] = postemergence, 62 g ai/ha, scale 0 to 100
[15] = postemergence, 250 g ai/ha, scale 0 to 100 (0 no effect, 100 complete control)
[16] = postemergence, 125 g ai/ha, scale 0 to 100, 0 no effect, 100 complete control
[17] = Postemergence, 500 g ai/ha, 0 to 100 scale (0 no effect, 100 complete control)
[18] = postemergence, 125 g ai/ha, about 10 days, visual rating on 0 to 100 scale (0 no effect, 100 complete control)

Question: Which results are given for CCc1cc(C(=O)NOC(C)C)nn1Cc1ccnc(OC(F)F)c1 [Compound 126]?
Answer: Plant response rating (scale of 0 to 100), Nutsedge, Yellow (nutsedge, yellow; Preemergence, 250 g ai/ha): 90; Nutsedge, Yellow plant response rating (nutsedge, yellow; [10]): 25; Nutsedge, Yellow plant response rating (nutsedge, yellow; [11]): 45; Nutsedge, Yellow plant response rating (nutsedge, yellow; [12]): 75; Plant response rating (scale of 0 to 100 where 0 is no effect and 100 is complete control), Oilseed Rape (oilseed rape [1]; [13]): 45; Oilseed Rape plant response rating (oilseed rape [1]; [14]): 50; Plant response rating, Oilseed Rape (oilseed rape [1]; [15]): 70; Plant response rating, Oilseed Rape (oilseed rape [1]; [16]): 60; Plant response rating (scale of 0 to 100 where 0 is no effect and 100 is complete control), Soybean (soybean [2]; [13]): 40; Soybean plant response rating (soybean [2]; [14]): 45; Plant response rating, Soybean (soybean [2]; [15]): 65; Plant response rating, Soybean (soybean [2]; [16]): 55; Plant response rating (scale of 0 to 100 where 0 is no effect and 100 is complete control), Corn (corn; [13]): 5; Corn plant response rating (corn; [14]): 10; Plant response rating, Corn (corn; [15]): 55; Plant response rating, Corn (corn; [16]): 35; Plant response rating (scale of 0 to 100), Oilseed Rape (oilseed rape [3]; Preemergence, 250 g ai/ha): 100; Oilseed Rape plant response rating (oilseed rape [3]; [10]): 85; Oilseed Rape plant response rating (oilseed rape [3]; [11]): 100; Oilseed Rape plant response rating (oilseed rape [3]; [12]): 100; Barnyardgrass plant response rating (barnyardgrass [4]; 125 g ai/ha, visual injury, 0 to 100 scale, approx. 10 days): 90; Barnyardgrass plant response rating (barnyardgrass [4]; 500 g ai/ha, visual injury after approx. 10 days, 0 to 100 scale (0 no effect, 100 complete control)): 100; Plant response rating (scale of 0 to 100), Velvetleaf (velvetleaf [5]; Preemergence, 250 g ai/ha): 100; Velvetleaf plant response rating (velvetleaf [5]; [10]): 65; Velvetleaf plant response rating (velvetleaf [5]; [11]): 85; Velvetleaf plant response rating (velvetleaf [5]; [12]): 100; Barnyardgrass plant response rating (barnyardgrass [6]; [17]): 100; Barnyardgrass plant response rating (barnyardgrass [6]; [18]): 90; Plant response rating (scale of 0 to 100), Soybean (soybean [7]; Preemergence, 250 g ai/ha): 98; Soybean plant response rating (soybean [7]; [10]): 25; Soybean plant response rating (soybean [7]; [11]): 40; Soybean plant response rating (soybean [7]; [12]): 75; Plant response rating (scale of 0 to 100 where 0 is no effect and 100 is complete control), Barnyardgrass (barnyardgrass [8]; [13]): 5; Barnyardgrass plant response rating (barnyardgrass [8]; [14]): 5; Plant response rating, Barnyardgrass (barnyardgrass [8]; [15]): 40; Plant response rating, Barnyardgrass (barnyardgrass [8]; [16]): 10; Plant response rating (scale of 0 to 100 where 0 is no effect and 100 is complete control), Velvetleaf (velvetleaf [9]; [13]): 30; Velvetleaf plant response rating (velvetleaf [9]; [14]): 25; Plant response rating, Velvetleaf (velvetleaf [9]; [15]): 70; Plant response rating, Velvetleaf (velvetleaf [9]; [16]): 35; Plant response rating (scale of 0 to 100 where 0 is no effect and 100 is complete control), Wheat (wheat; [13]): 5; Wheat plant response rating (wheat; [14]): 5; Plant response rating, Wheat (wheat; [15]): 5; Plant response rating, Wheat (wheat; [16]): 5; Pigweed plant response rating (pigweed; [17]): 90; Pigweed plant response rating (pigweed; [18]): 90
